Assay: xn = mol fraction of the nth substance listed
Details: 93.2 kPa, Liquid; for speed of sound: Frequency=3 MHz, Sing-around technique in a fixed-path interferometer; for mass density: Vibrating tube method

CCCC(=O)[O-].CCCC[NH3+] [n-butylammonium butanoate] + CCCCCO
Details | mass density, 293.15 K [kg/m3] | mass density, 298.15 K [kg/m3] | mass density, 303.15 K [kg/m3] | mass density, 308.15 K [kg/m3] | mass density, 313.15 K [kg/m3] | speed of sound, 293.15 K [m/s] | speed of sound, 298.15 K [m/s] | speed of sound, 303.15 K [m/s] | speed of sound, 308.15 K [m/s] | speed of sound, 313.15 K [m/s]
x1 = 0.0504 | 824.946 | 821.27 | 817.568 | 813.834 | 810.063 | 1301.5 | 1284.3 | 1267.3 | 1250.4 | 1233.7
x1 = 0.1004 | 834.049 | 830.391 | 826.701 | 822.985 | 819.232 | 1308.8 | 1291.6 | 1274.6 | 1257.6 | 1240.9
x1 = 0.1491 | 842.19 | 838.55 | 834.886 | 831.191 | 827.462 | 1315.5 | 1298.2 | 1281.2 | 1264.2 | 1247.4
x1 = 0.2025 | 850.502 | 846.885 | 843.247 | 839.579 | 835.881 | 1322.6 | 1305.3 | 1288.2 | 1271.2 | 1254.4
x1 = 0.2513 | 857.492 | 853.902 | 850.29 | 846.65 | 842.977 | 1328.8 | 1311.6 | 1294.5 | 1277.5 | 1260.7
x1 = 0.3007 | 864.133 | 860.568 | 856.983 | 853.372 | 849.736 | 1335 | 1317.8 | 1300.7 | 1283.7 | 1267
x1 = 0.3506 | 870.527 | 866.989 | 863.432 | 859.854 | 856.248 | 1341.3 | 1324.1 | 1307.1 | 1290.2 | 1273.4
x1 = 0.4003 | 876.48 | 872.967 | 869.437 | 865.888 | 862.315 | 1347.5 | 1330.3 | 1313.3 | 1296.4 | 1279.8
x1 = 0.4485 | 881.984 | 878.492 | 874.989 | 871.466 | 867.921 | 1353.3 | 1336.2 | 1319.2 | 1302.4 | 1285.7
x1 = 0.4981 | 887.228 | 883.761 | 880.283 | 876.786 | 873.27 | 1359.2 | 1342.1 | 1325.1 | 1308.3 | 1291.8
x1 = 0.549 | 892.419 | 888.971 | 885.516 | 882.044 | 878.557 | 1365.4 | 1348.2 | 1331.3 | 1314.5 | 1298
x1 = 0.5979 | 897.108 | 893.686 | 890.251 | 886.802 | 883.336 | 1371.3 | 1354.1 | 1337.1 | 1320.3 | 1303.8
x1 = 0.6483 | 901.8 | 898.401 | 894.993 | 891.566 | 888.123 | 1377.6 | 1360.3 | 1343.3 | 1326.5 | 1310
x1 = 0.6971 | 906.089 | 902.72 | 899.338 | 895.935 | 892.514 | 1383.8 | 1366.4 | 1349.3 | 1332.5 | 1315.9
x1 = 0.7444 | 910.065 | 906.721 | 903.359 | 899.982 | 896.583 | 1389.8 | 1372.2 | 1355 | 1338.1 | 1321.6
x1 = 0.7997 | 914.585 | 911.263 | 907.929 | 904.583 | 901.213 | 1397.4 | 1379.5 | 1362 | 1345 | 1328.3
x1 = 0.8466 | 918.226 | 914.903 | 911.586 | 908.265 | 904.921 | 1404.4 | 1386 | 1368.2 | 1350.9 | 1334.1
x1 = 0.901 | 922.256 | 918.92 | 915.606 | 912.298 | 908.979 | 1413 | 1394 | 1375.7 | 1358 | 1341
x1 = 0.9495 | 925.7 | 922.407 | 919.075 | 915.767 | 912.465 | 1421.1 | 1401.3 | 1382.5 | 1364.4 | 1347
x1 = 1 | 928.794 | 925.509 | 922.217 | 918.88 | 915.567 | 1431.5 | 1410.3 | 1390.4 | 1371.5 | 1353.6

CCCC(=O)[O-].CCCC[NH3+] [n-butylammonium butanoate] + CCCCO
Details | mass density, 293.15 K [kg/m3] | mass density, 298.15 K [kg/m3] | mass density, 303.15 K [kg/m3] | mass density, 308.15 K [kg/m3] | mass density, 313.15 K [kg/m3] | speed of sound, 293.15 K [m/s] | speed of sound, 298.15 K [m/s] | speed of sound, 303.15 K [m/s] | speed of sound, 308.15 K [m/s] | speed of sound, 313.15 K [m/s]
x1 = 0.0305 | 817.522 | 813.696 | 809.839 | 805.95 | 802.02 | 1266.2 | 1249.1 | 1232 | 1215.2 | 1198.4
x1 = 0.053 | 822.696 | 818.886 | 815.044 | 811.168 | 807.257 | 1271.7 | 1254.5 | 1237.4 | 1220.5 | 1203.8
x1 = 0.101 | 833.099 | 829.318 | 825.508 | 821.665 | 817.785 | 1283.3 | 1266 | 1248.9 | 1231.9 | 1215
x1 = 0.1611 | 844.531 | 840.793 | 837.028 | 833.231 | 829.399 | 1296.3 | 1279 | 1261.8 | 1244.8 | 1227.9
x1 = 0.2022 | 851.656 | 847.949 | 844.213 | 840.451 | 836.653 | 1304.8 | 1287.5 | 1270.3 | 1253.2 | 1236.3
x1 = 0.2509 | 859.278 | 855.605 | 851.908 | 848.183 | 844.427 | 1314 | 1296.7 | 1279.5 | 1262.5 | 1245.6
x1 = 0.3027 | 866.842 | 863.204 | 859.543 | 855.853 | 852.119 | 1323.6 | 1306.3 | 1289.2 | 1272.1 | 1255.3
x1 = 0.3528 | 873.375 | 869.771 | 866.147 | 862.502 | 858.829 | 1332.3 | 1315 | 1297.9 | 1280.9 | 1264.1
x1 = 0.4053 | 879.699 | 876.13 | 872.54 | 868.931 | 865.297 | 1340.8 | 1323.5 | 1306.4 | 1289.5 | 1272.7
x1 = 0.449 | 884.611 | 881.064 | 877.503 | 873.925 | 870.321 | 1347.7 | 1330.5 | 1313.3 | 1296.4 | 1279.7
x1 = 0.4988 | 889.855 | 886.337 | 882.803 | 879.25 | 875.67 | 1355.4 | 1338.1 | 1321 | 1304.1 | 1287.4
x1 = 0.5505 | 894.968 | 891.475 | 887.969 | 884.447 | 880.9 | 1363.2 | 1345.9 | 1328.8 | 1311.9 | 1295.2
x1 = 0.6005 | 899.486 | 896.02 | 892.541 | 889.046 | 885.533 | 1370.4 | 1353 | 1335.9 | 1319 | 1302.3
x1 = 0.6491 | 903.634 | 900.198 | 896.744 | 893.273 | 889.785 | 1377.4 | 1359.9 | 1342.7 | 1325.8 | 1309.1
x1 = 0.6982 | 907.626 | 904.22 | 900.798 | 897.354 | 893.894 | 1384.5 | 1366.9 | 1349.6 | 1332.6 | 1316
x1 = 0.7456 | 911.277 | 907.896 | 904.501 | 901.087 | 897.65 | 1391.5 | 1373.7 | 1356.2 | 1339.1 | 1322.3
x1 = 0.7944 | 914.718 | 911.354 | 907.982 | 904.593 | 901.177 | 1398.7 | 1380.5 | 1362.8 | 1345.5 | 1328.7
x1 = 0.8462 | 918.325 | 914.961 | 911.608 | 908.243 | 904.86 | 1406.7 | 1388 | 1370 | 1352.5 | 1335.5
x1 = 0.8928 | 921.358 | 917.984 | 914.632 | 911.284 | 907.92 | 1414.2 | 1394.9 | 1376.5 | 1358.7 | 1341.5
x1 = 0.9463 | 924.512 | 921.173 | 917.809 | 914.461 | 911.112 | 1422.7 | 1402.7 | 1383.7 | 1365.5 | 1348
x1 = 1 | 928.794 | 925.509 | 922.217 | 918.88 | 915.567 | 1431.5 | 1410.3 | 1390.4 | 1371.5 | 1353.6
